In patent publication US20090298169A1, “Pancreatic and Liver Endoderm Cells and Tissue by Differentiation of Definitive Endoderm Cells Obtained from Human Embryonic Stems” (The University of Georgia Research Foundation, priority 2006, published 2009):

Key:
BG01 cells [1] = assay: Morphology of BG01 hES cells cultured with PI3-kinase pathway inhibitors (standard microscopy); type: cell-based, human
Method: BG01 cells are passaged from feeders using the collagenase/trypsin method and are plated on matrigel coated dishes at 1×10^5 cells/35 mm dish in conditioned medium (CM; MEF conditioned medium plus 8 ng/ml bFGF). After approximately 24 hours, the media is replaced with fresh CM, CM with inhibitor (resuspended in EtOH), CM with EtOH, or with Spontaneous Differentiation medium (hES medium minus bFGF).
In alternative methods, the BG01 cells may be plated at different concentrations prior to contact with CM, CM with inhibitor and CM with EtOH Cells may be plated at the following concentrations: approximately 5×10^4 cells/35 mm dish, approximately 1×10^5 cells/35 mm dish, approximately 2×10^5 cells/35 mm dish, approximately 4×10^5 cells/35 mm dish and, approximately 6×10^5 cells/35 mm dish.
The inhibitor LY 294002 (Biomol) may be preferably used at the concentration range approximately 20-163 μM and the inhibitor Rapamycin (Calbiochem) is used at the concentration range approximately 1.5-30 nM. LY 294002 inhibits the PI3-kinase pathway by binding to the ATP docking site of p110. Rapamycin inhibits a subset of the PI3-kinase pathway by inhibiting mTOR (mammalian target of rapamycin).
Cells are grown in these conditions for approximately 72 hours with a medium change every 24 hours. Cells are harvested using the collagenase/trypsin method for flow cytometry and RT-PCR analysis and are scraped for biochemical analysis.
In undifferentiated cultures, individual cells are not easily discernable, being relatively small, irregular and without clearly apparent intercellular junctions at higher density. […] Individual cells are also more readily discernable at higher densities since discrete intercellular adhering junctions are evident between neighboring cells.

BG01 cells [2] = assay: Flow cytometry of cell surface markers (CD9) on inhibitor treated BG01 cells; type: cell-based, human
Method: (§1) The inhibitor studies are performed as described in Example 2.
For flow cytometry, the BG01 cells are washed with 1×PBS and fixed in 2% paraformaldehyde/1×PBS for 10 minutes at room temperature. The cells are then washed in 1×PBS and approximately 2×10^5 cells are incubated with primary antibody diluted in 1% BSA/1×PBS. The primary antibodies used are anti-CD9 and anti-thrombomodulin (Cymbus Biotechnology), FITC conjugated mouse monoclonal antibodies at a 1:10 dilution. Cells are incubated at 4° C. for 30 minutes and then washed twice in 1×PBS. Where appropriate, cells are resuspended in a secondary antibody, anti-mouse Alexa-488 (Molecular Probes) diluted 1:1000 in 1% BSA/PBS, incubated at 4° C. for 30 minutes, and then washed twice in 1×PBS. Cells are resuspended in 1% BSA/1×PBS and surface expression is analyzed using a Beckman Coulter FC500.

BG01 cells [3] = assay: RT-PCR analysis of differentiation markers in inhibitor treated BG01 cells; type: cell-based, human
Method: as §1
Total RNA is isolated using TRIzol Reagent (GibcoBRL). RNA is run on a 1% agarose gel containing ethidium bromide and visualized using the AlphaImager™ 2200 Documentation and Analysis System to ensure RNA integrity. 10 μg of RNA is treated with DNase (Ambion), which is removed with DNase Inactivation Reagent (Ambion). cDNA is prepared with 500 ng of total RNA using the Superscript II Reverse transcriptase Kit (Invitrogen) using oligo(dT) primers. PCR reactions are carried out on 1 μl of cDNA. PCR products are run on a 2% agarose gel containing ethidium bromide and visualized using the Alphaamager™ 2200 Documentation and Analysis System. PCR primer sets used were GATA4, Mix1, Msx1, AFP, HNF4alpha, eHAND, Nanog, AFP and GAPDH.

[4] = system: PI3-kinase signaling pathway; assay: Western blot analysis of PI3-kinase signaling pathway activity (phosphorylated PKB/Akt, S6 kinase, S6 protein); type: cell-based, human; conditions: BG01 cells maintained in the presence of inhibitor
Method: Activity of the PI3-kinase signaling pathway may be assessed by Western blot analysis. Briefly, detergent extracts are prepared from untreated and treated cell cultures, separated by SDS-PAGE and blotted to nitrocellulose. Expression of active forms of the PI3-kinase intracellular targets PKB/Akt, S6 kinase and S6 protein are then determined by probing the nitrocellulose with appropriate antibodies to phosphorylated forms of each of these proteins. Generally, 30 μg of total protein are evaluated for each sample, primary incubations were carried out at a 1:1000 dilution of antibody, and binding in each case is detected by standard ECL based methodology.

[5] = system: human definitive endoderm cells (DE); assay: Pancreatic endoderm formation from definitive endoderm with retinoic acid in FCS base media (Pdx1, Isl1 markers); type: cell-based
Method: (§2) BG01 hESCs were treated with LY 294002 (50 μM) for four days then switched to media containing DMEM/F12, 10% FCS, 50 ng/ml Fgf10 and 2 μM retinoic acid for up to four days. Untreated-untreated hESCs. Transcript levels were analyzed by QRT-PCR in triplicate and shown as the fold-increase over untreated samples (hESCs) after normalization to GAPDH reference transcript. Fold-induction of Pdx1 transcript levels are indicated.
as §2, with “consisting of” for “containing”, “Untreated: untreated” for “Untreated-untreated”, “transcript.” for “transcript. Fold-induction of Pdx1 transcript levels are indicated.”
The present invention relates to pancreatic endoderm cells (PE) which are obtained from definitive endoderm cells by exposing the definitive endoderm cells to an effective concentration of retinoic acid (at least about 0.05-0.1 μg/ml, preferably about 0.1-25 μg/ml, more preferably about 0.1-2.0 μg/ml) in base media comprising an effective amount of fetal calf serum (FCS— preferably about 10% of the base media plus serum) for a period of at least about 2 days, preferably at least about 4 days, and more preferably about 4 days, followed by exposing the cells obtained from the first step to FCS (preferably, about 10%) in base media for at least one day, preferably at least about 2 days in the absence of retinoic acid. This method preferably results in at least about 35-50% and preferably at least about 70-80+% of the cells in the treated sample expressing the pancreatic endoderm markers, Pdx1 and Isl1.
Definitive endoderm cells (from treatment above) are washed 2× with PBS. 2-3 ml Trypsin/EDTA solution is added and cells are triturated and collected in a 15 ml conical tube. DMEM/F12 with 10% FBS is added to stop the trypsinization and the cells are centrifuged at 200×g for 5 minutes. […]

BG01 hESCs = assay: AFP transcript induction (QRT-PCR) following treatment of definitive endoderm; type: cell-based, human; conditions: DE from LY 294002 (50 μM, four days), then DMEM/F12, 10% FCS up to six more days, presence or absence of Fgf10
Method: (§3) BG01 hESCs were differentiated into definitive endoderm for four days following the addition of LY 294002 (50 μM). Media was changed to DMEM/F12, 10% FCS and cells grown for up to six more days. Untreated: untreated hESCs. AFP transcript levels were analyzed by QRT-PCR in triplicate and shown as the fold-increase over untreated samples (hESCs) after normalization to GAPDH reference transcript.
as §3, with “The first example relates to the generation of cells expressing the embryonic liver marker alphafetoprotein (AFP) following treatment of definitive endoderm. BG01” for “BG01”

O=c1cc(N2CCOCC2)oc2c(-c3ccccc3)cccc12 [LY 294002, 2-(4-Morpholinyl)-8-phenyl-4H-1-benzopyran-4-one]
cell spreading and morphology after treatment (BG01 cells [1]; BG01 cells after treatment, compared with undifferentiated cultures): marked spreading and adopted obvious epitheloid cuboidal morphologies
changes in morphology at high plating density (BG01 cells [1]; cells plated at approximately 4×10^5 cells/35 mm dish or higher): do not demonstrate the same morphological changes
changes in morphology at low plating density (BG01 cells [1]; cells plated lower than approximately 2×10^5 cells/35 mm dish): display changes in morphology
morphological change of BG01 cells (BG01 cells [1]; cultured in the presence of inhibitor, matrigel, conditioned medium, approximately 72 hours): undergo morphological change
cell surface CD markers expressed by undifferentiated hES cells (CD9, 27, 30, 46, 58 and 81) (BG01 cells [2]; after LY treatment): loss of a subset of cell surface CD markers
expression of CD9 (BG01 cells [2]; compared with spontaneous differentiation in adherent culture or embryoid bodies): may decrease more rapidly
markers indicative of early differentiation (BG01 cells [3]): may be detected
activity of Akt [4]: inhibited
activity of S6 [4]: inhibited
activity of S6 kinase [4]: inhibited

CC1=C(/C=C/C(C)=C/C=C/C(C)=C/C(=O)O)C(C)(C)CCC1 [retinoic acid, all-trans retinoic acid]
homogeneity of differentiated cells ([5]; definitive endoderm cells cultured with retinoic acid in basal cell media): greater homogeneity than spontaneously differentiated cells
Isl1 expression ([5]; following treatment): marked increase
population of cells pure for the PE markers Pdx1 and Isl1 ([5]; from definitive endoderm cells): 70-80%

B1: Fgf10: fibroblast growth factor 10 (protein, UniProt O15520 38-208, looked up)
Fibroblast growth factor 10: QALGQDMVSPEATNSSSSSFSSPSSAGRHVRSYNHLQGDVRWRKLFSFTKYFLKIEKNGKVSGTKKENCPYSILEITSVEIGVVAVKAINSNYYLAMNKKGKLYGSKEFNNDCKLKERIEENGYNTYASFNWQHNGRQMYVALNGKGAPRRGQKTRRKNTSAHFLPMVVHS
AFP induction (BG01 hESCs): optimal AFP induction
